The results in this text go back to US10316041B2, “Spiro-lactam NMDA receptor modulators and uses thereof” (Apytinyx Inc., priority 2013, dated 2019).

Test [1] can be described thus: Porsolt test (floating time). Format: in vivo. Conditions: 3 mg/kg, IV, 1 hour post dose.
The test system of test [2] is Schaffer collateral-CA1 synapses in hippocampal slices. Description: Long term potentiation in hippocampal slices. Format: cell-based, rat. As for the experimental part: Assays were conducted as described in Zhang et al. (Zhang, X. L., Sullivan, J. A., Moskal, J. R., Stanton, P. K., 2008. A NMDA receptor glycine site partial agonist, GLYX-13, simultaneously enhances LTP and reduces LTD at Schaffer collateral-CA1 synapses in hippocampus. Neuropharmacology. 55, 1238-50) Sprague-Dawley rats (12-18 days old; Taconic Farms) were deeply anesthetized with isoflurane and decapitated. Rat brains were removed rapidly, submerged in ice-cold artificial cerebrospinal fluid (ACSF, 2-4° C.), which contained (in mM): 124 NaCl, 4 KCl, 2 MgSO4, 2 CaCl2, 1.25 NaH2PO4, 26 NaHCO3, 10 glucose; at pH 7.4, gassed continuously with 95% O2/5% CO2). The rat brains were hemisected, the frontal lobes cut off, and individual hemispheres glued using cyanoacrylate adhesive onto a stage immersed in ice-cold ACSF gassed continuously with 95% O2/5% CO2 during slicing. Coronal slices (400 μm thick) were cut using a Vibratome (Leica VT1200S), and transferred to an interface holding chamber for incubation at room temperature for a minimum of one hour before transferring to a Haas-style interface recording chamber continuously perfused at 3 ml/min with oxygenated ACSF at 32±0.5° C. […] A bipolar stainless steel stimulating electrode (FHC Co.) was placed on Schaffer collateral-commissural fibers in CA3 stratum radiatum, and constant current stimulus intensity adjusted to evoke approximately half-maximal fEPSPs once each 30 s ([…]; 100 μs duration). fEPSP slope was measured before and after induction of LTP by linear interpolation from 20 to 80% of maximum negative deflection, and slopes confirmed to be stable to within ±10% for at least 15 min before commencing an experiment. […] The signals were recorded using a Multiclamp 700B amplifier and digitized with a Digidata 1322 (Axon Instruments, USA). Data were analyzed using pClamp software (version 9, Axon Instruments) on an IBM-compatible personal computer.

The target in test [3] is T1, NMDA receptor (rat cortical membranes) (Rattus norvegicus, UniProt P35439).
T1 construct: from tissue; host or cells: rat cerebral cortex membranes
As to the kind of experiment: [3H]MK-801 binding assay (potentiation of binding). Conditions: for Activity (%): maximal activity, % maximal stimulation (1 mM glycine). On the procedure:
Assays were conducted as described in Moskal et al. (Moskal, J. R., Kuo, A. G., Weiss, C., Wood, P. L., O'Connor Hanson, A., Kelso, S., Harris, R. B., Disterhoft, J. F., 2005. GLYX-13: a monoclonal antibody-derived peptide that acts as an N-methyl-D-aspartate receptor modulator. Neuropharmacology. 49, 1077-87) The potentiation of [^3H]MK-801 binding (5 nM; 22.5 Ci/mmol) to well washed rat cortical membranes (200 μg) was measured under non-equilibrium conditions (15 min @ 25° C.) in the presence of increasing concentrations of test compounds and 50 μM glutamate. Zero levels were determined in the absence of any glycine ligand and in the presence of 30 μM 5.7 DCKA. Maximal stimulation was measured in the presence of 1 mM glycine, and 50 μM glutamate was present in all samples. The facilitation of [^3H]MK-801 binding by tests compounds was calculated by using a 3 parameter log agonist vs. response equation (Graph pad Prism, USA) and potency (EC50 expressed in pM) and maximal activity (% maximal stimulation) were calculated for the test compound.

The mark [4] stands for this setting: read-out: [3H] MK-801 binding assay: EC50.
Setting [5] is: potentiation of [3H]MK-801 binding, 50 μM glutamate, rat cortical membranes, read-out: pEC50 (converted).

Like-named read-outs stand apart in the source and are kept apart here. Where only a bound is given, the exact number is not on record here.

As to `CC(=O)N1CCCC12CN(CC(=O)N[C@H](C(N)=O)[C@@H](C)O)C2=O` (single isomer, unassigned) [Compound 6S-FNL-7-F2], the “Unified Activity Data: Porsolt Floating Time Inhibition (Percent)” value in test [1] is on record as 80%. Besides, the “Unified Activity Data: LTP Augmentation (Percent)” value in test [2] (LTP Concentration 1 uM) amounted to 150%.
For the compound `C[C@@H](O)[C@H](NC(=O)CN1CC2(CCCN2C(=O)OCc2ccccc2)C1=O)C(N)=O` (stereo in doubt) [Compound 6S-FNL-4, Benzyl 2-(2-((1-amino-3-hydroxy-1-oxobutan-2-yl)amino)-2-oxoethyl)-1-oxo-2,5-diazaspiro [3.4] octane-5-carboxylate], the EC50 in test [3] (setting [4]) was over 10000 nM.
On the same count and under the same terms, to `CC(=O)O[C@H](C)[C@H](NC(=O)CN1CC2(CCCN2)C1=O)C(N)=O` (stereo partly drawn) [Compound 6S-FNL-3, (2R, 3S)-4-amino-4-oxo-3-(2-(1-oxo-2,5-diazaspiro [3.4]octan-2-yl)acetamido) butan-2-yl acetate] belongs 1690 nM.
As to `C[C@@H](O)[C@H](NC(=O)CN1CC2(CCCN2C(=O)c2ncnn2C)C1=O)C(N)=O` (stereo partly drawn) [Compound C, (2S,3R)-3-hydroxy-2-(2-(5-(1-methyl-1H-1,2,4-triazole-5-carbonyl)-1-oxo-2,5-diazaspiro[3.4]octan-2-yl)acetamido) butanamide], in test [3], the “Activity (%)” value turned out to be 10%. The EC50 in test [3] (setting [5]) was 0.007 nM.
For `C[C@@H](O)[C@H](NC(=O)CN1CC2(CCCN2C(=O)c2ncnn2C)C1=O)C(=O)N1CCCC1` (stereo partly drawn) [Compound D, N-((2S, 3R)-3-hydroxy-1-oxo-1-(pyrrolidin-1-yl)butan-2-yl)-2-(5-(1-methyl-1H-1,2,4-triazole-5-carbonyl)-1-oxo-2,5-diazaspiro[3.4]octan-2-yl) acetamide] the same measures were 5% and 0.159 nM.
In the same order, the values of `CC(=O)N1CCCC12CN(CC(=O)N[C@H](C(N)=O)[C@@H](C)O)C2=O` (stereo partly drawn) [Compound H, (2S,3R)-2-(2-(5-acetyl-1-oxo-2,5-diazaspiro[3.4]octan-2-yl)acetamido)-3-hydroxy butanamide] are 20% and 0.195 nM.
On to “(2R, 3S)-4-amino-3-(2-(5-(1-benzyl-5-methyl-1H-1, 2, 3-triazole-4-carbonyl)-1-oxo-2, 5-diazaspiro [3.4] octan-2-yl) acetamido)-4-oxobutan-2-yl acetate [Compound B]”, for which the “Activity (%)” value in test [3] is given as 47%. Also, the values for the EC50 in test [3] (setting [5]) and in test [3] (setting [4]) were 0.006 nM and 0.00727 nM, respectively. Further, the “Unified Activity Data: Porsolt Floating Time Inhibition (Percent)” value in test [1] is 86%. In addition, the “Unified Activity Data: LTP Augmentation (Percent)” value in test [2] (LTP Concentration 0.1 uM) is reported as 110%. In test [2] (tested at 0.11 μM, FIG. 5), the “long-term potentiation after high frequency stimulation of Schaffer collateral-evoked NMDA e.p.s.c.s in CA1 pyramidal neurons” value was “increased long-term potentiation”.
